The structures appear in SMILES notation. *1 amine or outer side, *2 acyl side, *3 side chain or, on linkers, in order; H or OH if unused. Where a SMILES comes first, the peptide text is derived from it. Side-chain parts run from the residue outwards. [ ]: non-standard residue; d: D form. The star is where a group is joined. C18 diacid = O=C(O)CCCCCCCCCCCCCCCCC(=O)*; γGlu = O=C(O)[C@H](CCC(=O)[*:2])N[*:1]; Desaminohistidyl = O=C(CCc1c[nH]cn1)*; AEEA = NCCOCCOCC(=O)O; Aib = CC(C)(N)C(=O)O

For one data set, the target named is T1, human GLP-1 receptor (Homo sapiens, UniProt P43220).
T1 construct: expressed in transfected cells; host or cells: membranes of BHK cells, parent line BHKTS13, clone FCW467-12A
T1 sequence (P43220 24-463): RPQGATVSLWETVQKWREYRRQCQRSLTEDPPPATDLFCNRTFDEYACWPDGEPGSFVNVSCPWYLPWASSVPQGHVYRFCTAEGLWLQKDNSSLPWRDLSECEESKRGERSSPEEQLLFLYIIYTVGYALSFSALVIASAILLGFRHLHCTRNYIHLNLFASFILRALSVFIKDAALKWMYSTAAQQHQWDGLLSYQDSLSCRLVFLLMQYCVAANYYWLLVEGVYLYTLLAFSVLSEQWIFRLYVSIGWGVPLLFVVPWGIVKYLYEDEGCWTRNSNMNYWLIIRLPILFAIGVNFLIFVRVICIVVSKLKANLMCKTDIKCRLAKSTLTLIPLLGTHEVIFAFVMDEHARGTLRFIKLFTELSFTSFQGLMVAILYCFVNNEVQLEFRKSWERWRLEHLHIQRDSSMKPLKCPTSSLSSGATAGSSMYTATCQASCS
The experiment in a line: Assay (I)(a): GLP-1 receptor potency, CRE luciferase reporter gene assay in BHK cells. Type of data set: cell-based. The settings on record: BHK cells expressing human GLP-1 receptor, read-out: EC50 GLP-1R. The method in brief: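 BHK cells (clone FCW467-12A/KZ10-1), 5×10EE3/well, exposed 3 h at 37° C to compound at 1×10EE-13 to 1×10EE-6 M final in medium with 2% ovalbumin and 0.2% Pluronic F-68. Luciferase luminescence read; EC50 (pM) from four-parameter fit.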
For orientation: Reporter assays use an easily measured gene product as a stand-in for the process of interest.

The nature of data set [1]: Assay (V): chemical stability assessment by RP-UPLC. The following applies: 14 days at 37° C. in phosphate buffer (pH 7.3). Type of data set: physicochemical. The procedure, abridged: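 Lyophilized peptide dissolved in 8 mM phosphate pH 8.6, adjusted to pH 7.3, final 333 μM, held 14 days at 5° C and 37° C. Purity is main-peak area % by RP-UPLC with UV detection at 215 nm. Degradation is the 5° C minus 37° C purity difference divided by the 5° C purity.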

Consider `CC[C@H](C)[C@H](NC(=O)[C@H](Cc1ccccc1)NC(=O)[C@H](CCC(=O)O)NC(=O)[C@H](CCCNC(=N)N)NC(=O)[C@H](C)NC(=O)[C@H](C)NC(=O)[C@H](CCCNC(=N)N)NC(=O)CNC(=O)[C@H](CCC(=O)O)NC(=O)[C@H](CC(C)C)NC(=O)[C@H](Cc1ccc(O)cc1)NC(=O)[C@H](CCCCN)NC(=O)[C@H](CO)NC(=O)[C@@H](NC(=O)[C@H](CC(=O)O)NC(=O)[C@H](CO)NC(=O)[C@@H](NC(=O)[C@H](Cc1ccccc1)NC(=O)[C@@H](NC(=O)CNC(=O)[C@H](Cc1c[nH]cn1)NC(=O)[C@H](C)NC(=O)CCc1c[nH]cn1)[C@@H](C)O)[C@@H](C)O)C(C)C)C(=O)N[C@@H](C)C(=O)N[C@@H](Cc1c[nH]c2ccccc12)C(=O)N[C@@H](CC(C)C)C(=O)N[C@@H](CC(C)C)C(=O)N[C@@H](CCCCNC(=O)COCCOCCNC(=O)COCCOCCNC(=O)CC[C@H](NC(=O)CC[C@H](NC(=O)CC[C@H](NC(=O)CCCCCCCCCCCCCCCCC(=O)O)C(=O)O)C(=O)O)C(=O)O)C(=O)N[C@H](C(N)=O)[C@@H](C)O` [Example 10, N^ε34-[2-[2-[2-[[2-[2-[2-[[(4S)-4-carboxy-4-[[(4S)-4-carboxy-4-[[(4S)-4-carboxy-4-(17-carboxyheptadecanoylamino)butanoyl]amino]butanoyl]amino]butanoyl]amino]ethoxy]ethoxy]acetyl]amino]ethoxy]ethoxy]acetyl]-[Imp7,His9,Lys18,Arg23,Arg26,Leu33,Thr35]-GLP-1-(7-35)-peptide amide] (Desaminohistidyl-AHGTFTSDVSKYLEGRAAREFIAWLLK([AEEA-AEEA-γGlu-γGlu-γGlu-C18 diacid])T-NH2), for which the EC50 on human GLP-1 receptor came to 8 pM. Besides, the “Chemical stability: Chemical degradation over 14 days at 37° C.” value in data set [1] is 2.0%.

Regarding `CC[C@H](C)[C@H](NC(=O)[C@H](Cc1ccccc1)NC(=O)[C@H](CCC(=O)O)NC(=O)[C@H](CCCNC(=N)N)NC(=O)[C@H](C)NC(=O)[C@H](C)NC(=O)[C@H](CCC(N)=O)NC(=O)[C@H](CCC(=O)O)NC(=O)[C@H](CCC(=O)O)NC(=O)[C@H](CC(C)C)NC(=O)[C@H](Cc1ccc(O)cc1)NC(=O)[C@H](CCCCN)NC(=O)[C@H](CO)NC(=O)[C@@H](NC(=O)[C@H](CC(=O)O)NC(=O)[C@H](CO)NC(=O)[C@@H](NC(=O)[C@H](Cc1ccccc1)NC(=O)[C@@H](NC(=O)CNC(=O)[C@H](Cc1c[nH]cn1)NC(=O)C(C)(C)NC(=O)CCc1c[nH]cn1)[C@@H](C)O)[C@@H](C)O)C(C)C)C(=O)N[C@@H](C)C(=O)N[C@@H](Cc1c[nH]c2ccccc12)C(=O)N[C@@H](CC(C)C)C(=O)N[C@@H](CC(C)C)C(=O)N[C@@H](CCCCNC(=O)COCCOCCNC(=O)COCCOCCNC(=O)CC[C@H](NC(=O)CCCCCCCCCCCCCCCCC(=O)O)C(=O)O)C(=O)N[C@H](C(N)=O)[C@@H](C)O` [Example 12, N^ε34-[2-[2-[2-[[2-[2-[2-[[(4S)-4-carboxy-4-(17-carboxyheptadecanoylamino)butanoyl]amino]ethoxy]ethoxy]acetyl]amino]ethoxy]ethoxy]acetyl]-[Imp7,Aib8,His9,Lys18,Glu22,Arg26,Leu33,Thr35]-GLP-1-(7-35)-peptide amide] (Desaminohistidyl-[Aib]HGTFTSDVSKYLEEQAAREFIAWLLK([AEEA-AEEA-γGlu-C18 diacid])T-NH2), the concentration giving a half-maximal response (EC50) at human GLP-1 receptor is 6 pM. In addition, the “Chemical stability: Chemical degradation over 14 days at 37° C.” value in data set [1] is reported as 4.4%.

By EC50 is commonly meant the midpoint of the concentration-response curve.
